We go through seven molecules from ChEMBL document CHEMBL4190166 (Medchemcomm, 2016).

For assay [1], the target named is T1, Protein cereblon/Bromodomain-containing protein 4 (Homo sapiens, UniProt O60885+Q96SW2). Nature of the assay: Proteolysis targeting chimera activity in human BL cells assessed as induction of cereblon-mediated delivery of BRD4 for protein degradation by proteasome by immuno blot analysis. The class given is cell-based.
Assay [2] deals with Protein cereblon/Tyrosine-protein kinase ABL1/Breakpoint cluster region protein (Homo sapiens) (UniProt P00519+P11274+Q96SW2). Nature of the assay: Proteolysis targeting chimera activity in human K562 cells assessed as induction of cereblon-mediated delivery of BCR-ABL for protein degradation by proteasome at 1 uM after 24 hrs by immuno blot analysis relative to control. The class given is cell-based.
Sequence of Protein cereblon/Tyrosine-protein kinase ABL1/Breakpoint cluster region protein (Homo sapiens) (P00519 whole entry, looked up): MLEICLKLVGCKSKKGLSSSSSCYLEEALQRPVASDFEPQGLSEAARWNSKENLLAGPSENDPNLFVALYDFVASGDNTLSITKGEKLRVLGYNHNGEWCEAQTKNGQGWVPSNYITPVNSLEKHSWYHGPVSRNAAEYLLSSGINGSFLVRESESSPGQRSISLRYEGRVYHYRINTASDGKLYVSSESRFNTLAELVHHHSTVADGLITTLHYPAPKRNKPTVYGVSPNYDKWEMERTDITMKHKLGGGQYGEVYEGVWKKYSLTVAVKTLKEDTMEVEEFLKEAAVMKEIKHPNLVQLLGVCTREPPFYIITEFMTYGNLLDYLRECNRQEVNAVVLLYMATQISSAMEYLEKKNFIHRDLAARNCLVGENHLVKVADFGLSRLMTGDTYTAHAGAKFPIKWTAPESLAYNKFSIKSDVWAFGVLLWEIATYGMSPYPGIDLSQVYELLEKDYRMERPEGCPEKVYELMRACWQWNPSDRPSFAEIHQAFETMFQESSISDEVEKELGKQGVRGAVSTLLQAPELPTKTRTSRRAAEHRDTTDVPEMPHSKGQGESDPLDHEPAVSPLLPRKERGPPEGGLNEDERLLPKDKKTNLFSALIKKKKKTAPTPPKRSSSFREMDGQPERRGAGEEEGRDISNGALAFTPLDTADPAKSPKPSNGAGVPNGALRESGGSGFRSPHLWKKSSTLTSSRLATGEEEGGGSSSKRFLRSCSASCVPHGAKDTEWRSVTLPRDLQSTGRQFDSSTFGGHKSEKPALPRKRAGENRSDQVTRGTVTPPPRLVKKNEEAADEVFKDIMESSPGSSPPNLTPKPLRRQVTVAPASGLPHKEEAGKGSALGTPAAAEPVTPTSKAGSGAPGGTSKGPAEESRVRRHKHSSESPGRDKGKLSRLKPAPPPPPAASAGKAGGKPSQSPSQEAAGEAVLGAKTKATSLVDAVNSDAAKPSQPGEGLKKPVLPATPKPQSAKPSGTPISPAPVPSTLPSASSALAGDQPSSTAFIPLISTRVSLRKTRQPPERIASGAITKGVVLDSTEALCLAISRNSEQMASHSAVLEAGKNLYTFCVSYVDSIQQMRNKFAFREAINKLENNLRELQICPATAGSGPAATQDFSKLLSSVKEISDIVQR
Sequence of Protein cereblon/Tyrosine-protein kinase ABL1/Breakpoint cluster region protein (Homo sapiens) (P11274 whole entry, looked up): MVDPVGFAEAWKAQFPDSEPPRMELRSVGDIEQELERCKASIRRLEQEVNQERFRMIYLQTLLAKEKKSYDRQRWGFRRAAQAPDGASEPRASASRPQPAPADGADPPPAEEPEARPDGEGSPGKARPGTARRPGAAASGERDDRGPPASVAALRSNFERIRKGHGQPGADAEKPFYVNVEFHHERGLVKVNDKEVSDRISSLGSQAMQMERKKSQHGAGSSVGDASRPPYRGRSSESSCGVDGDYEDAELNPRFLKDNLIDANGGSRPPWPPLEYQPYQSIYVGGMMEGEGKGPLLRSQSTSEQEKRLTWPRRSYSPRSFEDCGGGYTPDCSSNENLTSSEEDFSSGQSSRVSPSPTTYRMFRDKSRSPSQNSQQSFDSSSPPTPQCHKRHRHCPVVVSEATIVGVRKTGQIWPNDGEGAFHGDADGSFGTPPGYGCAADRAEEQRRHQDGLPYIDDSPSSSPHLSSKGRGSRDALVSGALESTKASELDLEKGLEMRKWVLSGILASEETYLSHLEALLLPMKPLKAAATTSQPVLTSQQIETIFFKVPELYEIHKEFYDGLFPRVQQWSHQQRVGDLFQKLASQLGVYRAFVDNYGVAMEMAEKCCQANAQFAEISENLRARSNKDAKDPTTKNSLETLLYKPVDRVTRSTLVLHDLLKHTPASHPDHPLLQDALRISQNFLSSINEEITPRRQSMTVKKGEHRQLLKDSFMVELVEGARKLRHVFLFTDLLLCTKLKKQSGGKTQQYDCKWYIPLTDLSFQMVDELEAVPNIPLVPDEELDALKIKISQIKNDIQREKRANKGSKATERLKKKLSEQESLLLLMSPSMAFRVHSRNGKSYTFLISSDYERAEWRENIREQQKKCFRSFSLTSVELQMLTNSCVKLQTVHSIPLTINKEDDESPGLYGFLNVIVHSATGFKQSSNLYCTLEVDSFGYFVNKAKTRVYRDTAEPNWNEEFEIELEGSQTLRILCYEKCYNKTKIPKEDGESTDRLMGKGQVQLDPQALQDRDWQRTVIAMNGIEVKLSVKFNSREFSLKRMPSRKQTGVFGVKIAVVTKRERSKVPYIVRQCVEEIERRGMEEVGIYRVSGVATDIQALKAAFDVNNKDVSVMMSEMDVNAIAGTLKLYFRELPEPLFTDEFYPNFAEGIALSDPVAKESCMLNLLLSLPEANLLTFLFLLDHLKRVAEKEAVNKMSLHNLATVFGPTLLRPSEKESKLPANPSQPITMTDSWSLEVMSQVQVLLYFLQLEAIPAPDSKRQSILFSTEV
Sequence of Protein cereblon/Tyrosine-protein kinase ABL1/Breakpoint cluster region protein (Homo sapiens) (Q96SW2 whole entry, looked up): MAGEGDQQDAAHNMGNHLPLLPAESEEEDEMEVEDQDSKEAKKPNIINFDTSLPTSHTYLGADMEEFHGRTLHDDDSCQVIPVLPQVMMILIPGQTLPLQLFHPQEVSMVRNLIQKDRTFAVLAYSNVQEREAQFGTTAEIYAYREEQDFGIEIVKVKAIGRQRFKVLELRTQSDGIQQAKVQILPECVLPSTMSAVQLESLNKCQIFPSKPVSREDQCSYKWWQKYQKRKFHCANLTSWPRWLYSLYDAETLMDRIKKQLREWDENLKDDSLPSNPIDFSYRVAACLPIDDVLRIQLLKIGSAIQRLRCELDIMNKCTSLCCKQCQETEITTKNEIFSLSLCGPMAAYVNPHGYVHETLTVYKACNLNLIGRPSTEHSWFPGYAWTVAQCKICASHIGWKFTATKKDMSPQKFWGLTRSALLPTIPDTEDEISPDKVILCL

For assay [3], the target named is Protein cereblon/Tyrosine-protein kinase ABL1 (Homo sapiens) (UniProt P00519+Q96SW2). Nature of the assay: Proteolysis targeting chimera activity in human K562 cells assessed as induction of cereblon-mediated delivery of ABL for protein degradation by proteasome at 1 uM after 24 hrs by immuno blot analysis relative to control. The class given is cell-based.
Sequence of Protein cereblon/Tyrosine-protein kinase ABL1 (Homo sapiens) (P00519 whole entry, looked up): as the sequence (P00519 whole entry, looked up) above
Sequence of Protein cereblon/Tyrosine-protein kinase ABL1 (Homo sapiens) (Q96SW2 whole entry, looked up): as the sequence (Q96SW2 whole entry, looked up) above
In assay [4] the target is Protein cereblon/Peptidyl-prolyl cis-trans isomerase FKBP1A (Homo sapiens, UniProt P62942+Q96SW2). Nature of the assay: Proteolysis targeting chimera activity in human MV4-11 cells assessed as induction of cereblon-mediated delivery of FKBP12 for protein degradation by proteasome incubated for 18 hrs by immuno blot analysis. The class given is cell-based.
The next assay deals with Kidney. Nature of the assay: In vivo induction of ERRalpha degradation in CD-1 mouse kidney at 100 mg/kg, ip every 8 hrs measured 5 hrs post last dose by LC/MS analysis relative to control. The format is functional.
A further assay concerns MDA-MB-231. Nature of the assay: In vivo induction of ERRalpha degradation in human MDA-MB-231 cells xenografted in […] mouse at 100 mg/kg, ip every 8 hrs measured 5 hrs post last dose by LC/MS analysis relative to control. The class given is functional. (Xenograft models place foreign cells or tissue in a host animal.)
Another assay relates to Heart. Nature of the assay: In vivo induction of ERRalpha degradation in CD-1 mouse heart at 100 mg/kg, ip every 8 hrs measured 5 hrs post last dose by LC/MS analysis relative to control. The format is functional.
The target of assay [5] is von Hippel-Lindau disease tumor suppressor/Steroid hormone receptor ERR1 (Homo sapiens, UniProt P11474+P40337). Nature of the assay: Proteolysis targeting chimera activity in human MCF7 cells assessed as induction of VHL-mediated delivery of ERRalpha for protein degradation by proteasome by measuring drug level causing 50% substrate depletion incubated for 24 hrs by Western blot method. The class given is cell-based.

For assay [6], the target named is von Hippel-Lindau disease tumor suppressor/Bromodomain-containing protein 2 (Homo sapiens, UniProt P25440+P40337). Nature of the assay: Proteolysis targeting chimera activity in human 22Rv1 cells assessed as induction of VHL-mediated delivery of BRD2 for protein degradation by proteasome by measuring drug level causing 50% substrate depletion incubated for 16 hrs by Western blot method. The format is cell-based. In general terms: A western blot detects proteins with antibodies after separation by electrophoresis.

Another assay has as its system VCaP. Nature of the assay: Antitumor activity against human VCaP cells xenografted in SCID mouse assessed as tumor growth inhibition at 10 mg/kg, sc administered every 3 days for 16 days relative to control. The class given is functional. The settings on record: read-out: TGI.
Assay [7] concerns the target T1, Protein cereblon/Bromodomain-containing protein 4. Nature of the assay: Proteolysis targeting chimera activity in human MV4-11 cells assessed as induction of cereblon-mediated delivery of BRD4 for protein degradation by proteasome at 100 nM incubated for 18 hrs by immuno blot analysis. The format is cell-based.

T1 sequence (Q96SW2 whole entry, looked up, other chains not shown): as the sequence (Q96SW2 whole entry, looked up) above

By IC50 is commonly meant the concentration needed to halve the response being measured. As for `Cc1sc2c(c1C)C(c1ccc(Cl)cc1)=C[C@@H](CC(=O)Nc1ccc(OCCOCCOCCOCCNc3cccc4c3C(=O)N(C3CCC(=O)NC3=O)C4=O)cc1)c1nnc(C)n1-2` (stereo partly drawn), the IC50 in assay [1] was below 1 nM.

For the molecule `COc1cc(Nc2c(C#N)cnc3cc(OCCCN4CCN(CCCCCCOCCOCCOCCCCCc5cccc6c5C(=O)N(C5CCC(=O)NC5=O)C6=O)CC4)c(OC)cc23)c(Cl)cc1Cl` (stereo not drawn), the results for the Imax in assay [2] and in assay [3] were 80% and 90%, respectively.

In the case of `Cc1nc(Nc2ncc(C(=O)Nc3c(C)cccc3Cl)s2)cc(N2CCN(CCCCCCOCCOCCOCCCCCc3cccc4c3C(=O)N(C3CCC(=O)NC3=O)C4=O)CC2)n1` (stereo not drawn), the Imax in [2] was above 60%; in assay [3], above 85%.

Turning to `CCC(C)(C)C(=O)C(=O)N1CCCC[C@H]1C(=O)O[C@H](CCc1ccc(OC)c(OC)c1)c1cccc(NC(=O)CCC(=O)NCCNC(=O)COc2cccc3c2C(=O)N(C2CCC(=O)NC2=O)C3=O)c1` (stereo partly drawn), the IC50 in [4] was determined as 10 nM.

Regarding `COc1cc(/C=C2\SC(=O)N(CCOCCC(=O)N[C@H](C(=O)N3C[C@H](O)C[C@H]3C(=O)NCc3ccc(-c4scnc4C)cc3)C(C)(C)C)C2=O)ccc1Oc1ccc(C#N)cc1C(F)(F)F`, the Activity in the assay with Kidney, in the assay with MDA-MB-231 and with Heart was 40% in each case. Moreover, the IC50 in assay [5] was determined as 100 nM.

Take `Cc1ncsc1-c1ccc([C@H](C)NC(=O)[C@@H]2C[C@@H](O)CN2C(=O)[C@@H](NC(=O)COCCCOCCNC(=O)C[C@@H]2N=C(c3ccc(Cl)cc3)c3c(sc(C)c3C)-n3c(C)nnc32)C(C)(C)C)cc1`: the IC50 in [6] is below 5 nM. Besides, the inhibition in vivo at 10 mg/kg in the assay on VCaP was 60%.

With `Cc1sc2c(c1C)C(c1ccc(Cl)cc1)=C[C@@H](CC(=O)NCCCCNC(=O)COc1cccc3c1C(=O)N(C1CCC(=O)NC1=O)C3=O)c1nnc(C)n1-2` (stereo partly drawn), in assay [7], the Imax was above 85%.
